Reference: patent US8628781B2, “Prevention and treatment of cast nephropathy” (The UAB Research Foundation, priority 2010, dated 2014)
“Also recorded” adds a separate entry of the source. Bridges are numbered along the chain shown (N, C = ends). Where no end group is shown, it is not given here.

Legend:
Tamm-Horsfall protein [1] = target: T1, Tamm-Horsfall protein (Homo sapiens, UniProt P07911); experiment: Competitive ELISA: peptide inhibition of Tamm-Horsfall protein binding to immunoglobulin light chains bound in microtiter wells; conditions: for inhibition of binding between Tamm-Horsfall protein and human light chains (in words): six human light chains (λ2, 3 and 5 and κ3, 6, and 7), FIG. 7; for inhibition of binding of Tamm-Horsfall protein to immunoglobulin light chain (in words): uncyclized and cyclized peptide, FIG. 5
Excerpt: Peptides known to react with the Tamm-Horsfall protein in the yeast two-hybrid assay were synthesized, cyclized, and used as inhibitors in a competitive ELISA experiment. The peptides were cyclized by adding cysteine residues to the amino and carboxyl-terminal portions of the peptides and generating an intramolecular disulfide bridge (FIG. 4). Cyclization facilitates formation of the loop structure in solution. Both the linear and cyclized peptides inhibited the binding of the Tamm-Horsfall protein to the immunoglobulin light chains bound in the wells of the microtiter plate, but the efficiency of inhibition was increased by cyclization of the peptide inhibitor.
(§1) Mutation of the CDR3 sequence to disrupt the loop structure by substituting amino acid residues with phenyalanine confirmed that the secondary structure was an important determinant of binding (FIG. 6). The inhibitory capability of cyclized experimental (CLSADSSGSYLYVC (SEQ ID NO:32)) and control (CLSAFSFGFYLYVC (SEQ ID NO:33)) peptides were then compared in a competitive ELISA assay.

Tamm-Horsfall protein [2] = experiment: Yeast two-hybrid assay of CDR3 inserts ligated between Framework 2 and Framework 3 of LKPBLL53; type: binding, human; conditions: FIG. 6, N=7
Excerpt: Addition of the framework regions permits each CDR3, which was ligated into the construct using Sma1 and BamH1, to achieve proper folding into a loop structure. […] The CDR3 domain of ITPBLL2 differed from the CDR3 domain of ITPBLL1 (SEQ ID NO:28) by only two amino acids (underlined), which were sufficient to inhibit formation of a loop structure, and, thus, binding to the Tamm-Horsfall protein. […] N=6 experiments for each group.
Among those CDR3 domains that were predicted to form a loop, affinity for the Tamm-Horsfall protein was strong and correlated with that observed using the intact VL from the parent light chain.
as §1

[3] = test system: rat model of cast nephropathy; experiment: Rat model of cast nephropathy by administration of human kappa and lambda light chains; type: in vivo; conditions: rats given human kappa and lambda light chains
Description: The competitor peptides, SEQ ID NO:1 and SEQ ID NO:2, have been used in a rat model of cast nephropathy, which employed administration of human kappa and lambda light chains. […] Rats were injected intraperitoneally with 40 mg of cyclized competitor peptide, SEQ ID NO:2 (pep), or vehicle alone (veh) just prior to intraperitoneal injection of 100 mg of human kappa or lambda light chain purified from patients who had multiple myeloma and kidney damage. On the following day, rats also received an additional injection of competitor peptides, SEQ ID NO:1 (20 mg) or vehicle. Rats were examined three days after the initial injection.

Tamm-Horsfall protein [4] = target: T1, Tamm-Horsfall protein; experiment: Competition studies of synthetic CDR3 peptide with light chains from myeloma patients for binding to Tamm-Horsfall protein; conditions: six different immunoglobulin light chains from patients with myeloma and cast nephropathy
Excerpt: The yeast two-hybrid system was employed to determine the site on the immunoglobulin light chain that interacted with the Tamm-Horsfall protein. Using 248- and 787-base pair fragments of the Tamm-Horsfall protein, which contained the previously described immunoglobulin light chain-binding domain, the interaction with unique immunoglobulin light chains that represented a variety of the known isotypes of κ and λ immunoglobulin light chains was examined. […] While this was considered an advance, this peptide was not considered to bind avidly enough to the Tamm-Horsfall protein to serve as an effective inhibitor in vivo.

## CLSADSSGSYLYVC (disulfide 1-14 (inferred)) [cyclized experimental peptide]
Tamm-Horsfall protein [1]
  inhibition of binding between Tamm-Horsfall protein and human light chains (in words): completely prevented the binding; also recorded: very efficient inhibitor

## CLSAFSFGFYLYVC (disulfide 1-14 (inferred)) [cyclized control peptide, reference compound]
Tamm-Horsfall protein [1]
  inhibition of binding between Tamm-Horsfall protein and human light chains (in words): did not effectively inhibit binding

## LSADSSGSYLYV
Tamm-Horsfall protein [2]
  interaction of wildtype and phenylalanine-mutated CDR3 sequence with Tamm-Horsfall protein (in words): interacted strongly

## LSADSSGSYLYVF [peptide 2, LSADSSGSYLYVF]
Tamm-Horsfall protein [1]
  inhibition of binding of Tamm-Horsfall protein to immunoglobulin light chain (in words): inhibit binding
[3]
  effect on cast formation, acute renal failure and renal function (in words): prevented cast formation and acute renal failure and improved renal function

## LSAFSFGFYLYV [ITPBLL86 CDR3 mutated with three phenylalanines]
Tamm-Horsfall protein [2]
  interaction of wildtype and phenylalanine-mutated CDR3 sequence with Tamm-Horsfall protein (in words): none of the mutated sequences interacted

## LSAFSFGSYLYV [ITPBLL86 CDR3 mutated with two phenylalanines]
Tamm-Horsfall protein [2]
  interaction of wildtype and phenylalanine-mutated CDR3 sequence with Tamm-Horsfall protein (in words): none of the mutated sequences interacted

## LSAFSSGSYLYV [ITPBLL86 CDR3 mutated with one phenylalanine]
Tamm-Horsfall protein [2]
  interaction of wildtype and phenylalanine-mutated CDR3 sequence with Tamm-Horsfall protein (in words): none of the mutated sequences interacted

## MQGTHWPPLT [synthetic peptide identical to the CDR3 region of SSH23]
Tamm-Horsfall protein [4]
  competition with light chains for binding to Tamm-Horsfall protein (in words): effectively competed

## QSYDNTLSGSYVF [peptide 1, QSYDNTLSGSYVF]
Tamm-Horsfall protein [1]
  inhibition of binding of Tamm-Horsfall protein to immunoglobulin light chain (in words): inhibit binding
[3]
  effect on cast formation, acute renal failure and renal function (in words): prevented cast formation and acute renal failure and improved renal function
